Test results from patent US12180226B2, “Spirotricycle RIPK1 inhibitors and methods of uses thereof” (Merck Sharp & Dohme LLC, priority 2021, dated 2024).
Where a name gives a salt, the structure may show the parent alone.

molecular target: RIPK1 (recombinant GST-RIPK1 kinase domain, residues 1-327) (Homo sapiens (Human), UniProt Q13546); assay: RIPK1-ADP-Glo Enzymatic Assay; type: biochemical; settings: ADP-Glo; 25 nM GST-RIPK1, 300 μM ATP; assay lower limit ~25 nM; read-out: RIPK1 V0 Ec50
How it was run: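 Using dephosphorylated MBP (3 μM) as substrate and 300 μM ATP, 25 nM baculovirus-produced enzyme was reacted for 150 min after a 30-min compound pre-incubation. Luminescent ADP detection followed; lower confidence limit ~25 nM.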

Chain of RIPK1 (recombinant GST-RIPK1 kinase domain, residues 1-327) (Q13546 1-327): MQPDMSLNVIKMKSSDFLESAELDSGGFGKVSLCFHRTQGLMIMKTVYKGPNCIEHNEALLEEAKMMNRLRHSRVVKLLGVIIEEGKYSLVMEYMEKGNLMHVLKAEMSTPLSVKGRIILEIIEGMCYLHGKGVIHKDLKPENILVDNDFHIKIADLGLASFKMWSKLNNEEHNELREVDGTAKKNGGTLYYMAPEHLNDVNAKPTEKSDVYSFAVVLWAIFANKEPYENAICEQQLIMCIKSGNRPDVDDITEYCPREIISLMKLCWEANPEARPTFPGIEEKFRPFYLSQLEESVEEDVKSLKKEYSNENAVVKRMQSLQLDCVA

EC50 | Compound
< 25 nM | COc1cccc(C(=O)N2CCC3(CC2)O[C@@H]2CC[C@@H](c4cc(F)cc(F)c4)N2C3=O)c1 [Example 6.10, (5′S,7a′R)-5′-(3,5-difluorophenyl)-1-(3-methoxybenzene-1-carbonyl)tetrahydro-3′H-spiro[piperidine-4,2′-pyrrolo[2,1-b] [1,3]oxazol]-3′-one]
28.4 nM | O=C(c1cocn1)N1CCC2(CC1)O[C@@H]1CC[C@@H](c3cc(F)cc(F)c3)N1C2=O [Example 5.30, (5′S,7a′R)-5′-(3,5-difluoro-phenyl)-1-(1-oxazole-4-carbonyl)tetrahydro-3′H-spiro[piperidine-4,2′-pyrrolo[2,1-b]oxazol]-3′-one]
228 nM | CC1(C)Cc2cccc(C(=O)N3CCC4(CC3)O[C@@H]3CC[C@@H](c5cc(F)cc(F)c5)N3C4=O)c2O1 [Example 6.32, (5′S,7a′R)-5′-(3,5-difluorophenyl)-1-(2,2-dimethyl-2,3-dihydro-1-benzo-furan-7-carbonyl)-tetrahydro-3′H-spiro [piperidine-4,2′-pyrrolo[2,1-b][1,3]oxazol]-3′-one]
< 25 nM | O=C(c1sccc1Cl)N1CCC2(CC1)O[C@@H]1CC[C@@H](c3cc(F)cc(F)c3)N1C2=O [Example 5.31, (5′S,7a′R)-1-(3-chloro-thiophene-2-carbonyl)-5′-(3,5-difluorophenyl)tetra-hydro-3′H-spiro[piperi-dine-4,2′-pyrrolo[2,1-b]oxazol]-3′-one]
213 nM | Cc1ccccc1CN1CCC2(CC1)O[C@@H]1CC[C@@H](c3cc(F)cc(F)c3)N1C2=O [Example 22.5, (5′S,7a′R)-5′-(3,5-difluorophenyl)-1-[(2-methylphenyl)methyl] tetrahydro-3′H-spiro[piperidine-4,2′-pyrrolo[2,1-b][1,3]oxazol]-3′-one]
78.7 nM | O=C(c1cccc(C23CC(C2)C3)n1)N1CCC2(CC1)O[C@@H]1CC[C@@H](c3cc(F)cc(F)c3)N1C2=O [Example 6.137, (5′S,7a′R)-1-[6-(bicyclo[1.1.1]pentan-1-yl)pyridine-2-car-bonyl]-5-(3,5-difluoro-phenyl)tetrahydro-3′H-spiro[piperidine-4,2′-pyrrolo[2,1-b] [1,3]oxazol]-3′-one]
< 25 nM | COc1ccc(N2CCC3(CC2)O[C@@H]2CC[C@@H](c4cc(F)cc(F)c4)N2C3=O)n2nccc12 [Example 19.1, (5′S,7a′R)-5′-(3,5-Difluorophenyl)-1-(4-methoxypyrazolo[1,5-a]pyridin-7-yl)tetrahydro-3′H-spiro[piperidine-4,2′-pyrrolo[2,1-b]oxazol]-3′-one, TFA]
760 nM | Cc1cncc(C(=O)N2CCC3(CC2)O[C@@H]2CC[C@@H](c4cc(F)cc(F)c4)N2C3=O)n1 [Example 6.4, (5′S,7a′R)-5′-(3,5-difluorophenyl)-1-(6-methylpyrazine-2-carbonyl)tetrahydro-3′H-spiro[piperidine-4,2′-pyrrolo[2,1-b] [1,3]oxazol]-3′-one]
< 25 nM | O=C(c1cc(F)c(F)cc1F)N1CCC2(CC1)O[C@@H]1CC[C@@H](c3ccccc3)N1C2=O [Example 5.10, (5′S,7a′R)-5′-phenyl-1-(2,4,5-trifluorobenzene-1-carbonyl)tetrahydro-3′H-spiro[piperidine-4,2′-pyrrolo[2,1-b][1,3]oxazol]-3′-one]
< 25 nM | O=C(c1cccc(N2CCOCC2)c1)N1CCC2(CC1)O[C@@H]1CC[C@@H](c3cc(F)cc(F)c3)N1C2=O [Example 6.47, (5′S,7a′R)-5′-(3,5-difluorophenyl)-1-[3-(morpholin-4-yl)-benzene-1-carbonyl]-tetrahydro-3′H-spiro [piperidine-4,2′-pyrrolo[2,1-b][1,3]oxazol]-3′-one]
487 nM | O=C1N2[C@@H](CC[C@H]2c2cc(F)cc(F)c2)OC12CCN(c1nccn3cncc13)CC2 [Example 13.14, (5′S,7a′R)-5′-(3,5-difluorophenyl)-1-(imidazo[1,5-a]pyrazin-8-yl)tetrahydro-3′H-spiro[piperidine-4,2′-pyrrolo[2,1-b]oxazol]-3′-one, TFA salt]
97.7 nM | O=C1N2[C@@H](CC[C@H]2c2ccccc2)OC12CCN(c1nccc(C3CC3)n1)CC2 [Example 11.12, (5′S,7a′R)-1-(4-cyclopropylpyrimidin-2-yl)-5′-phenyltetrahydro-3′H-spiro[piperidine-4,2′-pyrrolo[2,1-b][1,3]oxazol]-3′-one]
< 25 nM | Cc1ccc([C@@H]2CC[C@H]3OC4(CCN(C(=O)c5ccccc5)CC4)C(=O)N32)cc1 [Example 17.3, (5′S,7a′R)-1-benzoyl-5′-(p-tolyl)tetrahydro-3′H-spiro[piperidine-4,2′-pyrrolo[2,1-b]oxazol]-3′-one]
71.7 nM | Cc1cc(C)cc(C(=O)N2CCC3(CC2)O[C@@H]2CC[C@@H](c4cccc(F)c4)N2C3=O)c1 [Example 6.132, (5′S,7a′R)-1-(3,5-dimethylbenzene-1-carbonyl)-5′-(3-fluoro-phenyl)tetrahydro-3′H-spiro[piperidine-4,2′-pyrrolo[2,1-b][1,3]oxazol]-3′-one]
757 nM | O=C1N2[C@@H](CC[C@H]2c2ccccc2)OC12CCN(c1nnc(C(F)(F)F)s1)CC2 [Example 11.27, (5′S,7a′R)-5′-phenyl-1-[5-(trifluoromethyl)-1,3,4-thiadiazol-2-yl]tetrahydro-3′H-spiro[piperidine-4,2′-pyrrolo[2,1-b][1,3]oxazol]-3′-one]

More lines, now with the values behind:

Compound | EC50
O=C1N2[C@@H](CC[C@H]2c2ccccc2)OC12CN(c1ncnc3ccnn13)C2 [Example 4.137, (5′S,7a′R)-5′-phenyl-1-(pyrazolo[1,5-a] [1,3,5]triazin-4-yl)tetrahydro-3′H-spiro[azetidine-3,2′-pyrrolo[2,1-b] [1,3]oxazol]-3′-one] | 235 nM
O=C(c1ccccc1)N1CCC2(CC1)S[C@@H]1CC[C@@H](c3ccccc3)N1C2=O [Example 1.23, (5′S,7a′R)-1-(benzenecarbonyl)-5′-phenyltetrahydro-3′H-spiro[piperidine-4,2′-pyrrolo[2,1-b] [1,3]thiazol]-3′-one] | 26.1 nM
O=C1N2[C@H](CC[C@@H]2c2ccccc2)SC12CCN(c1ccnc3ccnn13)CC2 [Example 4.115, (5′R,7a′S)-5′-phenyl-1-(pyrazolo[1,5-a]pyrimidin-7-yl)tetrahydro-3′H-spiro[piperidine-4,2′-pyrrolo[2,1-b]thiazol]-3′-one] | 180 nM
COCCN1Cc2nc(N3CCC4(CC3)O[C@@H]3CC[C@@H](c5ccccc5)N3C4=O)ccc2C1=O [Example 4.191, (5′S,7a′R)-1-[6-(2-methoxyethyl)-5-oxo-6,7-dihydro-5H-pyrrolo[3,4-b]pyridin-2-yl]-5′-phenyltetrahydro-3′H-spiro[piperidine-4,2′-pyrrolo[2,1-b] [1,3]oxazol]-3′-one] | 53 nM
O=C1N2[C@@H](CC[C@H]2c2cc(F)cc(F)c2)OC12CCN(c1ncc(F)c(C(F)F)n1)CC2 [Example 4.66, (5′S,7a′R)-1-[4-(difluoromethyl)-5-fluoropyrimidin-2-yl]-5′-(3,5-difluorophenyl)tetrahydro-3′H-spiro[piperidine-4,2′-pyrrolo[2,1-b] [1,3]oxazol]-3′-one] | 38.4 nM
O=C(c1ccccc1)N1CCC2(CC1)O[C@@H]1CC[C@@H](c3ccccc3F)N1C2=O [Example 1.13, (5′S,7a′R)-1-benzoyl-5′-(2-fluorophenyl)tetrahydro-3′H-spiro[piperidine-4,2′-pyrrolo[2,1-b]oxazol]-3′-one] | < 25 nM
O=C1N2[C@@H](CC[C@H]2c2cccc(F)c2)OC12CCN(c1ccnc3c(F)cnn13)CC2 [Example 4.129, (5′S,7a′R)-5′-(3-fluorophenyl)-1-(3-fluoropyrazolo[1,5-a]pyrimidin-7-yl)tetrahydro-3′H-spiro[piperidine-4,2′-pyrrolo[2,1-b] [1,3]oxazol]-3′-one] | < 25 nM
N#Cc1ccc(N2CCC3(CC2)O[C@@H]2CC[C@@H](c4ccccc4)N2C3=O)n2ncc(Br)c12 [Example 4.183, 3-bromo-7-[(5′S,7a′R)-3′-oxo-5′-phenyltetrahydro-1H,3′H-spiro[piperidine-4,2′-pyrrolo[2,1-b] [1,3]oxazol]-1-yl]pyrazolo[1,5-a] pyridine-4-carbonitrile] | < 25 nM
N#Cc1ccc(N2CCC3(CC2)O[C@@H]2CC[C@@H](c4ccccc4)N2C3=O)n2ncc(C(F)F)c12 [Example 4.179, 3-(difluoromethyl)-7-[(5′S,7a′R)-3′-oxo-5′-phenyltetrahydro-1H,3′H-spiro[piperidine-4,2′-pyrrolo[2,1-b] [1,3]oxazol]-1-yl]pyrazolo[1,5-a] pyridine-4-carbonitrile] | < 25 nM
Cc1ncc([C@@H]2CC[C@H]3OC4(CCN(c5ccnc6c(F)cnn56)CC4F)C(=O)N32)cc1F (stereo partly drawn) [Example 4.130, (5′S,7a′R)-3-fluoro-5′-(5-fluoro-6-methylpyridin-3-yl)-1-(3-fluoropyrazolo[1,5-a]pyrimidin-7-yl)tetrahydro-3′H-spiro[piperidine-4,2′-pyrrolo[2,1-b] [1,3]oxazol]-3′-one] | < 25 nM
O=C(c1ccccc1)N1CCC2(CC1)O[C@@H]1CC[C@@H](c3ccccc3)N1C2=O [Example 1.3, (5′S,7a′R)-1-(benzenecarbonyl)-5′-phenyltetrahydro-3′H-spiro[piperidine-4,2′-pyrrolo[2,1-b] [1,3]oxazol]-3′-one] | < 25 nM
COc1nccc(N2CCC3(CC2)O[C@@H]2CC[C@@H](c4ccccc4)N2C3=O)n1 [Example 4.17, (5′S,7a′R)-1-(2-methoxypyrimidin-4-yl)-5′-phenyltetrahydro-3′H-spiro[piperidine-4,2′-pyrrolo[2,1-b] [1,3]oxazol]-3′-one] | < 25 nM
COc1cc(N2CCC3(CC2)O[C@@H]2CC[C@@H](c4cccc(F)c4)N2C3=O)ncn1 [Example 4.51, (5′S,7a′R)-5′-(3-fluorophenyl)-1-(6-methoxypyrimidin-4-yl)tetrahydro-3′H-spiro[piperidine-4,2′-pyrrolo[2,1-b] [1,3]oxazol]-3′-one] | 41.2 nM
